Assay: Iron-chelating activity after 4 hrs by CAS assay
Assay type: functional

Compound | ED50 [µM]
CC(C)CC(=O)N(O)CCCCCNC(=O)CCC(=O)N(O)CCCCCNC(=O)CCC(=O)N(O)CCCCCN | 115
CC(=O)N(O)CCCCCNC(=O)CCC(=O)N(O)CCCCCNC(=O)CCC(=O)N(O)CCCCCN | 120
CC(C)CC(=O)N(O)CCCCCNC(=O)CCC(=O)N(O)CCCCCNC(=O)CCC(=O)O | 110
COC(=O)CCC(=O)NCCCCCN(O)C(=O)CC(C)C | > 1000
CC(C)CC(=O)N(O)CCCCCNC(=O)CCC(=O)O | > 1000
